The source of these data is patent US20210122730A1, “GLUCOCORTICOID RECEPTOR MODULATORS” (ORIC Pharmaceuticals, Inc., priority 2017, published 2021).

By inhibition is commonly meant the drop in the measured response relative to a control, in per cent. A low value points to a weak effect. One may read the IC50 as the point on the concentration scale where inhibition reaches its midpoint. A high value points to a need for much substance.

The target in one data set is T1, CYP2C8 (Homo sapiens, UniProt P10632).
T1 construct: Pooled human microsomes were obtained from Sekisui XenoTech, KS; tissue Sekisui XenoTech, KS; host or cells: pooled human liver microsomes
T1 sequence (P10632 1-490): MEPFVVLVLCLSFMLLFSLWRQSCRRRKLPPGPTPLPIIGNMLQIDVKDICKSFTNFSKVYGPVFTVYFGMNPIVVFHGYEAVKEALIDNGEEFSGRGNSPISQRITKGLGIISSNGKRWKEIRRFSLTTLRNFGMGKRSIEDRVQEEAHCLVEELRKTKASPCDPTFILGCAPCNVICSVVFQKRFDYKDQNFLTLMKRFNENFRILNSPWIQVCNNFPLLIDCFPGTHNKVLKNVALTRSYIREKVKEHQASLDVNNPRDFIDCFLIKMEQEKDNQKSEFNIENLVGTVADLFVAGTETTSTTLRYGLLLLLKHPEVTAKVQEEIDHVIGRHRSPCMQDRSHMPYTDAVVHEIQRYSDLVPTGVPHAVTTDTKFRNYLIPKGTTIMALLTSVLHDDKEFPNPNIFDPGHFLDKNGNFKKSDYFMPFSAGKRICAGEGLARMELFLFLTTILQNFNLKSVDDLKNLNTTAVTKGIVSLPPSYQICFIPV
In words: CYP Inhibition Assay (CYP2C8, human liver microsomes, paclitaxel substrate). The format is in vitro ADME. As to conditions: pH 7.4; pooled human liver microsomes 0.1 mg/mL, probe substrate paclitaxel. The gist of the method: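 CYP2C8 activity read as 6α-hydroxypaclitaxel formation by LC-MS/MS, with % inhibition versus vehicle control. Reactions ran 5 min at 37° C, pH 7.4 phosphate buffer, 0.1 mg/mL pooled human liver microsomes, 1 mM NADPH, duplicate wells.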
(In general: Liver microsomes are a subcellular fraction often used to study metabolism.)

The target of a further data set is T2, GR (Homo sapiens, UniProt P04150).
T2 construct: expressed in transfected cells; host or cells: CHO-K1
T2 sequence (P04150 1-777): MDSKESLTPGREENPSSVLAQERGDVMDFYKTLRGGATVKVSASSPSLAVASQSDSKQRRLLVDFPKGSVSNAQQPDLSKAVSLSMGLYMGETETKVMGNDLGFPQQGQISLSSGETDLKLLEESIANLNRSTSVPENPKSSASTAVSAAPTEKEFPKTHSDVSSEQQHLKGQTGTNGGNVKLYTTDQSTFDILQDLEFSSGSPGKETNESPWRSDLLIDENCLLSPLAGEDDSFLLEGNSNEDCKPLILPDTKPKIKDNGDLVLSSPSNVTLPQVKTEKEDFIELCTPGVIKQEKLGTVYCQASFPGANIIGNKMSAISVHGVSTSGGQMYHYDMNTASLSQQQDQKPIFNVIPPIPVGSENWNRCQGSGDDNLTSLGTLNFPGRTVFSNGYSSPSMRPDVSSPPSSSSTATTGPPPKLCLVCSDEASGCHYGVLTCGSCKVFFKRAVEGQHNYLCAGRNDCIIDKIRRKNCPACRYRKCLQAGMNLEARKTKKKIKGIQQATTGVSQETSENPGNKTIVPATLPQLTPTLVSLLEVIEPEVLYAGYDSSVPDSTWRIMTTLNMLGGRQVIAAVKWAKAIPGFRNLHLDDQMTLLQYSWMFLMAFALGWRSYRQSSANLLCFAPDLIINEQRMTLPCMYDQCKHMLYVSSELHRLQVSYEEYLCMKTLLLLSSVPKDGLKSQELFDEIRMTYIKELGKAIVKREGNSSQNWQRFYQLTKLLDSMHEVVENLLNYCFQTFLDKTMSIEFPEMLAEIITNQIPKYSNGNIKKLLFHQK
Briefly: In Vitro GR Luciferase Reporter Assay (antagonist mode, CHO-K1-GR-MMTV-Luc reporter cells). The format is cell-based. As to conditions: antagonist mode, 10 nM Dexamethasone. The gist of the method: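 Antagonist mode: compounds (8 serial 1:5 dilutions) added to GR-MMTV-luciferase CHO-K1 reporter cells co-exposed to 10 nM dexamethasone final, in phenol red-free DMEM plus 10% CSS. After roughly 18-24 h at 37° C, OneGlo luminescence read and IC50 calculated.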
On the technique in general: Reporter assays use an easily measured gene product as a stand-in for the process of interest.

As to `Cn1ncc(S(=O)(=O)N(C2CC2)[C@H]2CCC3=Cc4c(cnn4-c4ccc(F)cc4)C[C@]3(C(=O)c3cc(Cl)ccn3)C2)n1` [Example 262, N-((4aS,6S)-4a-(4-chloropicolinoyl)-1-(4-fluorophenyl)-4,4a,5,6,7,8-hexahydro-1H-benzo[f]indazol-6-yl)-N-cyclopropyl-2-methyl-2H-1,2,3-triazole-4-sulfonamide], the inhibition at 5 min against CYP2C8 was 50 to 75%. Further, the IC50 against GR is not above 100 nM.
Taken in the same sequence, the figures for `Cn1ncc(S(=O)(=O)N(C2CC2)[C@H]2CCC3=Cc4c(cnn4-c4ccc(F)cc4)C[C@]3(C(=O)c3cc(F)ccn3)C2)n1` [Example 263, N-cyclopropyl-N-((4aS,6S)-1-(4-fluorophenyl)-4a-(4-fluoropicolinoyl)-4,4a,5,6,7,8-hexahydro-1H-benzo[f]indazol-6-yl)-2-methyl-2H-1,2,3-triazole-4-sulfonamide] were 75 to 90% and not above 100 nM.
In the same order, the values of `Cn1cc(S(=O)(=O)N(C2CC2)[C@H]2CCC3=Cc4c(cnn4-c4ccc(F)cc4)C[C@]3(C(=O)c3cc(F)ccn3)C2)nn1` [Example 265, N-cyclopropyl-N-((4aS,6S)-1-(4-fluorophenyl)-4a-(4-fluoropicolinoyl)-4,4a,5,6,7,8-hexahydro-1H-benzo[f]indazol-6-yl)-1-methyl-1H-1,2,3-triazole-4-sulfonamide] are 50 to 75% and not above 100 nM.
In the same order, the values of `Cn1ccnc1S(=O)(=O)N(C1CC1)[C@H]1CCC2=Cc3c(cnn3-c3ccc(F)cc3)C[C@]2(C(=O)c2ncc(C(F)(F)F)s2)C1` [Example 266, N-cyclopropyl-N-((4aS,6S)-1-(4-fluorophenyl)-4a-(5 (trifluoromethyl)thiazole-2-carbonyl)-4,4a,5,6,7,8-hexahydro-1H-benzo[f]indazol-6-yl)-1-methyl-1H-imidazole-2-sulfonamide] are 75 to 90% and not above 100 nM.
Consider `Cn1ccc(S(=O)(=O)N(C2CC(F)(F)C2)[C@H]2CCC3=Cc4c(cnn4-c4ccc(F)cc4)C[C@]3(C(=O)c3cc(F)ccn3)C2)n1` [Example 267, N-(3,3-difluorocyclobutyl)-N-((4aS,6S)-1-(4-fluorophenyl)-4a-(4-fluoropicolinoyl)-4,4a,5,6,7,8-hexahydro-1H-benzo[f]indazol-6-yl)-1-methyl-1H-pyrazole-3-sulfonamide], for which the inhibition at 5 min at CYP2C8 lay in the range of 50 to 75%. The compound further showed an IC50 against GR not above 100 nM.
Taken in the same sequence, the figures for `Cn1cc(S(=O)(=O)N(C2CC2)[C@H]2CCC3=Cc4c(cnn4-c4ccc(F)cc4)C[C@]3(C(=O)c3cc(Cl)ccn3)C2)nn1` [Example 268, N-((4aS,6S)-4a-(4-chloropicolinoyl)-1-(4-fluorophenyl)-4,4a,5,6,7,8-hexahydro-1H-benzo[f]indazol-6-yl)-N-cyclopropyl-1-methyl-1H-1,2,3-triazole-4-sulfonamide] were 50 to 75% and not above 100 nM.
As to `CC(C)N([C@H]1CCC2=Cc3c(cnn3-c3ccc(F)cc3)C[C@]2(C(=O)c2cc(Cl)ccn2)C1)S(=O)(=O)c1cnn(C)n1` [Example 269, N-((4aS,6S)-4a-(4-chloropicolinoyl)-1-(4-fluorophenyl)-4,4a,5,6,7,8-hexahydro-1H-benzo[f]indazol-6-yl)-N-isopropyl-2-methyl-2H-1,2,3-triazole-4-sulfonamide], the inhibition at 5 min against CYP2C8 lay within 75 to 90%. Also, the IC50 on GR was not above 100 nM.
In the same order, the values of `Cn1ccc(S(=O)(=O)[C@H]2CCC3=Cc4c(cnn4-c4ccc(F)cc4)C[C@]3(C(=O)c3ccc(C(F)(F)F)cn3)C2)n1` [Example 272, ((4aS,6S)-1-(4-fluorophenyl)-6-((1-methyl-1H-pyrazol-3-yl)sulfonyl)-1,4,5,6,7,8-hexahydro-4aH-benzo[f]indazol-4a-yl)(5-(trifluoromethyl)pyridin-2-yl)methanone] are not above 25% and not above 100 nM.
